Assay results from publication PMC12396409, “Screening and hit evaluation of a microbial metabolite library against the pathogenic Plasmodium falciparum and Toxoplasma gondii parasites” (International Journal for Parasitology: Drugs and Drug …, 2025).
Where two headings read alike, the source gives them in different places.

How the values were obtained:
[1] = system: T. gondii RH strain (RH-Tub-eYFP) tachyzoites; experiment: microbe, parasite or virus in culture; format: cell-based, Toxoplasma gondii; details: 72 h; for percent parasite growth at 2 µg/mL: Toxoplasma gondii
[2] = system: P. falciparum 3D7 parasites; experiment: P. falciparum growth inhibition assay, 1-cycle (72 h treatment), SYBR DNA staining (library screen at 2 μg/mL and dose-response); format: cell-based, Plasmodium falciparum; details: for activity at 2 µg/mL: Plasmodium falciparum
[3] = system: P. falciparum 3D7 parasites; experiment: P. falciparum growth inhibition assay, 2-cycle (120 h treatment), delayed-death screen and dose-response; format: cell-based, Plasmodium falciparum; details: for activity at 2 µg/mL: Plasmodium falciparum
[4] = T. gondii, screen at 2 μg/mL, replicate 1
[5] = T. gondii, screen at 2 μg/mL, replicate 2
[6] = P. falciparum, 72 h, screen at 2 μg/mL, replicate 1
[7] = P. falciparum, 72 h, screen at 2 μg/mL, replicate 2
[8] = P. falciparum, 120 h, screen at 2 μg/mL, replicate 1
[9] = P. falciparum, 120 h, screen at 2 μg/mL, replicate 2
[10] = T. gondii, screen at 2 μg/mL, replicate 1, read-out: Tg_72h_%Growth_Rep1
[11] = T. gondii, screen at 2 μg/mL, replicate 2, read-out: Tg_72h_%Growth_Rep2
[12] = 3D7, P. falciparum, 72 h, screen at 2 μg/mL, replicate 1, read-out: Pf_72h_%Growth_Rep1
[13] = 3D7, P. falciparum, 72 h, screen at 2 μg/mL, replicate 2, read-out: Pf_72h_%Growth_Rep2
[14] = 3D7, P. falciparum, 120 h, screen at 2 μg/mL, replicate 1, read-out: Pf_120h_%Growth_Rep1
[15] = 3D7, P. falciparum, 120 h, screen at 2 μg/mL, replicate 2, read-out: Pf_120h_%Growth_Rep2

## CC(=O)C1=C(O)C=C2Oc3c(C(N)=O)c(O)cc(O)c3[C@]2(C)C1=O [Cercosporamide]
[1]; [4]
  Tg_72h_%Growth_Rep1: 84.28%
[1]; [5]
  Tg_72h_%Growth_Rep2: 89.90%
[2]; [6]
  Pf_72h_%Growth_Rep1: 93.73%
[2]; [7]
  Pf_72h_%Growth_Rep2: 83.00%
[3]; [8]
  Pf_120h_%Growth_Rep1: 127.36%
[3]; [9]
  Pf_120h_%Growth_Rep2: 89.41%

## CCCCCCCCCCCCCCCC(=O)OC[C@@H](NC(=O)C(Cl)Cl)[C@H](O)c1ccc([N+](=O)[O-])cc1 [Chloramphenicol palmitate]
[1]; [10]
  percent parasite growth at 2 µg/mL: 153%
[1]; [11]
  percent parasite growth at 2 µg/mL: 98.2%
[2]; [12]
  activity at 2 µg/mL: 83.7%
[2]; [13]
  activity at 2 µg/mL: 81.8%
[3]; [14]
  activity at 2 µg/mL: 101%
[3]; [15]
  activity at 2 µg/mL: 90.8%

## COC1=C2C[C@@H](C)C[C@H](OC)[C@H](O)[C@@H](C)/C=C(\C)[C@H](OC(N)=O)[C@@H](OC)/C=C\C=C(/C)C(=O)NC(=CC1=O)C2=O [Geldanamycin]
[1]; library screen at 2 μg/mL, % growth, replicate 1, read-out: Tg_72h_%Growth_Rep1
  percent parasite growth at 2 µg/mL: 24.8%
[1]; library screen at 2 μg/mL, % growth, replicate 2, read-out: Tg_72h_%Growth_Rep2
  percent parasite growth at 2 µg/mL: 24.3%
[2]; 3D7, library screen at 2 μg/mL, 72 h, % growth, replicate 1, read-out: Pf_72h_%Growth_Rep1
  activity at 2 µg/mL: 5.26%
[2]; 3D7, library screen at 2 μg/mL, 72 h, % growth, replicate 2, read-out: Pf_72h_%Growth_Rep2
  activity at 2 µg/mL: 2.63%
[3]; 3D7, library screen at 2 μg/mL, 120 h, % growth, replicate 1, read-out: Pf_120h_%Growth_Rep1
  activity at 2 µg/mL: 25.5%
[3]; 3D7, library screen at 2 μg/mL, 120 h, % growth, replicate 2, read-out: Pf_120h_%Growth_Rep2
  activity at 2 µg/mL: 11.8%

## CC(=O)OC1CCC2(C)C(CCC3C2CC(=O)C2(C)C3CC3OC4(CCC(C)CO4)C(C)C32)C1 (stereo not drawn) [BIA-H1764]
[1]; T. gondii RH, library screen at 2 μg/mL, % growth, replicate 1
  Tg_72h_%Growth_Rep1: 117.31%
[1]; T. gondii RH, library screen at 2 μg/mL, % growth, replicate 2
  Tg_72h_%Growth_Rep2: 105.95%
[2]; P. falciparum 3D7, 72 h, library screen at 2 μg/mL, % growth, replicate 1
  Pf_72h_%Growth_Rep1: 86.38%
[2]; P. falciparum 3D7, 72 h, library screen at 2 μg/mL, % growth, replicate 2
  Pf_72h_%Growth_Rep2: 124.08%
[3]; P. falciparum 3D7, 120 h, library screen at 2 μg/mL, % growth, replicate 1
  Pf_120h_%Growth_Rep1: 85.47%
[3]; P. falciparum 3D7, 120 h, library screen at 2 μg/mL, % growth, replicate 2
  Pf_120h_%Growth_Rep2: 116.07%

## CN(C)[C@@H]1C(=O)C(C(=O)NCN2CCN(CCO)CC2)=C(O)[C@@]2(O)C(=O)C3=C(O)c4c(O)cccc4[C@@](C)(O)[C@H]3C[C@@H]12 [BIA-P1473]
[1]; T. gondii, parasite screen at 2 μg/mL, % growth, replicate 1
  Tg_72h_%Growth_Rep1: 118.64%
[1]; T. gondii, parasite screen at 2 μg/mL, % growth, replicate 2
  Tg_72h_%Growth_Rep2: 93.61%
[2]; P. falciparum 3D7, 72 h, parasite screen at 2 μg/mL, % growth, replicate 1
  Pf_72h_%Growth_Rep1: 83.77%
[2]; P. falciparum 3D7, 72 h, parasite screen at 2 μg/mL, % growth, replicate 2
  Pf_72h_%Growth_Rep2: 98.47%
[3]; P. falciparum 3D7, 120 h, parasite screen at 2 μg/mL, % growth, replicate 1
  Pf_120h_%Growth_Rep1: 88.47%
[3]; P. falciparum 3D7, 120 h, parasite screen at 2 μg/mL, % growth, replicate 2
  Pf_120h_%Growth_Rep2: 132.29%

## C=C1[C@@H](C)[C@H]2[C@H](Cc3ccccc3)NC(=O)[C@]23OC(=O)/C=C/[C@H](O)CCC[C@@H](C)C/C=C/[C@H]3[C@@H]1O [Cytochalasin B]
[1]; [10]
  percent parasite growth at 2 µg/mL: 31.3%
[1]; [11]
  percent parasite growth at 2 µg/mL: 60.5%
[2]; 3D7, 72 h, P. falciparum, 72 h, screen at 2 μg/mL, replicate 1, read-out: Pf_72h_%Growth_Rep1
  activity at 2 µg/mL: 8.23%
[2]; 3D7, 72 h, P. falciparum, 72 h, screen at 2 μg/mL, replicate 2, read-out: Pf_72h_%Growth_Rep2
  activity at 2 µg/mL: 10.3%
[3]; 3D7, 120 h, P. falciparum, 120 h, screen at 2 μg/mL, replicate 1, read-out: Pf_120h_%Growth_Rep1
  activity at 2 µg/mL: -1.09%
[3]; 3D7, 120 h, P. falciparum, 120 h, screen at 2 μg/mL, replicate 2, read-out: Pf_120h_%Growth_Rep2
  activity at 2 µg/mL: 8.72%

## CCC1C=CC2C=C(C)C(OC3CC(C)(O)C(NC(C)=O)C(C)O3)C(C)C=C(C)C3C=CC4C(OC5CC(O)C(OC6CC(OC7CCC(O)C(C)O7)C(OC7CC(O)C(O)C(C)O7)C(C)O6)C(C)O5)C(C)CC(C)C4C3(C)C(O)=C3C(=O)OC2(C1)C3=O (stereo not drawn) [Saccharocarcin A]
[1]; T. gondii, parasite screen 2 μg/mL, % growth, replicate 1
  Tg_72h_%Growth_Rep1: -0.34%
[1]; T. gondii, parasite screen 2 μg/mL, % growth, replicate 2
  Tg_72h_%Growth_Rep2: 2.07%
[2]; P. falciparum, 72 h, parasite screen 2 μg/mL, % growth, replicate 1
  Pf_72h_%Growth_Rep1: 25.38%
[2]; P. falciparum, 72 h, parasite screen 2 μg/mL, % growth, replicate 2
  Pf_72h_%Growth_Rep2: 12.51%
[3]; P. falciparum, 120 h, parasite screen 2 μg/mL, % growth, replicate 1
  Pf_120h_%Growth_Rep1: 14.27%
[3]; P. falciparum, 120 h, parasite screen 2 μg/mL, % growth, replicate 2
  Pf_120h_%Growth_Rep2: 13.84%

## CO[C@H]1C[C@@H]2CC[C@@H](C)[C@@](O)(O2)C(=O)C(=O)N2CCCC[C@H]2C(=O)O[C@H]([C@H](C)C[C@@H]2CC[C@H](n3cnnn3)[C@H](OC)C2)CC(=O)[C@H](C)/C=C(\C)[C@@H](O)[C@@H](OC)C(=O)[C@H](C)C[C@H](C)/C=C/C=C/C=C/1C [Zotarolimus]
[1]; [10]
  percent parasite growth at 2 µg/mL: 120%
[1]; [11]
  percent parasite growth at 2 µg/mL: 77.8%
[2]; [12]
  activity at 2 µg/mL: 75.7%
[2]; [13]
  activity at 2 µg/mL: 88.3%
[3]; [14]
  activity at 2 µg/mL: 97.5%
[3]; [15]
  activity at 2 µg/mL: 77.1%

## Cc1cc(=O)c2c(o1)O[C@@]1(C)CC[C@@H]3[C@@]4(C)CC[C@H](O)C(C)(C)[C@@H]4CC[C@@]3(C)[C@@H]1C2 [Chevalone E]
[1]; [4]
  Tg_72h_%Growth_Rep1: 83.71%
[1]; [5]
  Tg_72h_%Growth_Rep2: 88.30%
[2]; [6]
  Pf_72h_%Growth_Rep1: 103.28%
[2]; [7]
  Pf_72h_%Growth_Rep2: 92.51%
[3]; [8]
  Pf_120h_%Growth_Rep1: 162.52%
[3]; [9]
  Pf_120h_%Growth_Rep2: 100.96%
